# Test results published in patent publication US9855239B2, “Methods for the treatment and prevention of age-related retinal dysfunction” (University of Washington, priority 2008, dated 2018).
# “Also recorded” adds a separate entry of the source.
# Legend:
# C57BL/6 female mice [1] = assay: Single-flash ERG after single dose treatment, bleach and dark adaptation; format: in vivo, mouse; settings: single dose ~80 mg/kg gavage, 10-month-old mice, 20 min bleach at 500 cd·m^−2, 16 hr dark adaptation; vs control (a-waves P<0.01)
# Description: (§1) Forty eight hr dark-adapted, 10-month-old mice were gavaged with a single dose (˜80 mg/kg body weight) of 9-cis-R-Ac or control vehicle and exposed to strong illumination for 20 min (500 cd·m^−2 that bleached ˜90% rhodopsin). Next, mice were dark-adapted for 16 hr after which various analyses were performed (FIG. 1A). […] To investigate whether 9-cis-retinal was utilized to form isorhodopsin and to assess how much unliganded opsin was present in the mouse eyes, rhodopsin, isorhodopsin and opsin were purified by immunoaffinity chromatography from treated and control groups of mice. […] After bleaching, 9-cis-retinal is bound to opsin even in the presence of a functional retinoid cycle that produces 11-cis-retinal to regenerate rhodopsin. Eyes from non-bleached or bleached and dark-adapted untreated mice contained a small amount of free opsin.
# 9-cis-R-Ac was prepared as previously described (Batten, M. L., et al. PLoS medicine 2, e333 (2005); Batten, M. L., et al. J Biol Chem 279, 10422-10432 (2004)). A dose of ˜80 mg/kg body weight of 9-cis-R-Ac in 150 μl vegetable oil was administered via gavage to each treated animal. […]
# (§2) ERGs of anesthetized mice were recorded as previously reported.
# [2] = mouse, in vivo
# Description: Animals were evaluated weekly for activity and changes in coat and skin appearance.
# For the long-term study (FIGS. 1B and 1C, Table 1), mice were obtained at 3 months of age and raised until 4 months of age before the experiments were initiated. Mice then were gavaged with 9-cis-R-Ac or vehicle solution once a month for different durations. Six groups of mice were studied (FIG. 1B). The first 3 groups (C0 C1 and C2, total n=35 for each group) were treated as controls and tested at 4, 10 and 14 months of age. The other 3 groups (N1, N2 and N3, n=35) were gavaged with 9-cis-R-Ac. Group N1 was gavaged for 6 months and tested at 10 months of age. Group N2 was gavaged with 9-cis-R-Ac for 10 months and tested at 14 months of age. Group N3, was gavaged with vehicle until 10 months of age and then received 9-cis-R-Ac monthly until testing at 14 months of age.
# C57BL/6 female mice [3] = assay: Single flash ERG analyses after long-term treatment; format: in vivo, mouse; settings: for a- and b-wave amplitudes, scotopic and photopic single flash ERG: 80 mg/kg
# Text: To evaluate the effects of rod- and cone-mediated light responses after long-term 9-cis-R-Ac treatments, mice were examined by non-invasive ERG methods. The first set of analyses was done at 4 and 10 months of age. Under scotopic conditions, the amplitudes of a-waves decreased with age, especially at high flash intensities (C1 versus C0 group, FIG. 4A, left top panel), whereas the changes in b-waves were less evident (FIG. 4A, right top panel).
# The second set of analyses was done at 14 months of age.
# Six groups of mice were studied (FIG. 1B).
# (§3) Two weeks after the last gavage with either, 9-cis-R-Ac, all-trans-R-Ac or vehicle, groups of 48 hr dark-adapted mice were analyzed for recovery of dark adaptation after light exposure, purified rhodopsin/opsin and retinoids in the eye and retinal morphology (FIG. 1C; Methods). Mice were exposed to light of intensity 500 cd·m^−2 that bleached ˜90% of rhodopsin, anesthetized and monitored by ERG for one hr to evaluate recovery of dark adaptation. Rhodopsin was purified and rhodopsin/opsin ratios was determined. Retinoid analyses were performed on dissected eyes removed at 0, 10, 30, and 60 min after exposure to the same amount of light. Mice used to evaluate retinal morphology were not exposed to photobleaching prior to analysis.
# as §2
# rhodopsin/opsin [4] = biological target: T1, rhodopsin/opsin (Mus musculus, UniProt P15409); assay: Rhodopsin regeneration ratio of immunoaffinity-purified rhodopsin/opsin, single dose; format: in vivo
# T1 construct: from tissue; host or cells: whole eyes of wild-type C57BL/6 female mice
# T1 sequence (P15409 whole entry): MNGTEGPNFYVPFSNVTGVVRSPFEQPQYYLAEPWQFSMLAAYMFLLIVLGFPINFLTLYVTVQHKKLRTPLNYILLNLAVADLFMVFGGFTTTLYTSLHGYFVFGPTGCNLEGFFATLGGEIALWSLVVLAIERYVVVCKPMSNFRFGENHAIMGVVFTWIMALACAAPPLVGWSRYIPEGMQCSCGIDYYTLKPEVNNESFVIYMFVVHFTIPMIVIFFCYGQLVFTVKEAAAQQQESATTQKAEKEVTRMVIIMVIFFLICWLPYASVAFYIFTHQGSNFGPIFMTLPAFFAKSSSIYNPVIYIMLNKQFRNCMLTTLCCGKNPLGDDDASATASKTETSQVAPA
# Description: as §1
# 9-cis-R-Ac was prepared as previously described (Batten, M. L., et al. PLoS medicine 2, e333 (2005); Batten, M. L., et al. J Biol Chem 279, 10422-10432 (2004)). A dose of ˜80 mg/kg body weight of 9-cis-R-Ac in 150 μl vegetable oil was administered via gavage to each treated animal. Prior to single dose experiments (FIG. 1A, Table 1), 10-month-old mice were dark-adapted for more than 48 hr, gavaged with 9-cis-R-Ac or vehicle control solution 1 hr before bleaching, exposed to light for 20 min at 500 cd·m^−2 and dark-adapted for 16 hr before analysis.
# Rhodopsin purification was done under dim red light as previously described (Zhu, L., et al. J Biot Chem, 279, 53828-53839 (2004)). […] Purified rhodopsin concentration was determined at 500 nm and total amount of opsin and rhodopsin at 280 nm with a Hewlett-Packard 8452A UV-visible spectrophotometer (Palczewski, K., Carruth, M. E., Adamus, G., McDowell, J. H. & Hargrave, P. A. Vision Research, 30, 1129-1137 (1990)). […]
# rhodopsin/opsin [5] = biological target: T1, rhodopsin/opsin; assay: Purified rhodopsin/opsin analysis after long-term treatment; format: in vivo
# Description: as §3
# Rhodopsin purification was done under dim red light as previously described (Zhu, L., et al. J Biot Chem, 279, 53828-53839 (2004)). Purified anti-rhodopsin C terminus antibody 1D4 (MacKenzie, D., Arendt, A., Hargrave, P., McDowell, J. H. & Molday, R. S. Biochemistry, 23, 6544-6549 (1984)) was immobilized on CNBr-activated Sepharose 4B and a 4.6×12-mm column was packed with 2 mg of 1 D4 antibody/ml of Sepharose beads. Mouse whole eyes were homogenized in 137 mM NaCl, 5.4 mM Na2HPO4, 2.7 mM KCl and 1.8 mM KH2PO4 (pH 7.5) with a glass-to-glass homogenizer. Soluble proteins in the supernatant were removed by centrifugation at 14,000×g for 5 min and the pellet was solubilized in buffer containing 1% dodecyl-β-maltoside in 10 mM Bis-Tris propane (pH 7.5) containing 500 mM NaCl. The supernatant was cleared by centrifugation at 125,000×g for 20 min and loaded onto an antibody 1 D4-packed immunoaffinity column which was then thoroughly washed at a flow rate of 0.5 ml/min with 10 mM Bis-Tris propane (pH 7.5) containing 500 mM NaCl and 0.1% dodecyl-β-maltoside. […] Purified rhodopsin concentration was determined at 500 nm and total amount of opsin and rhodopsin at 280 nm with a Hewlett-Packard 8452A UV-visible spectrophotometer (Palczewski, K., Carruth, M. E., Adamus, G., McDowell, J. H. & Hargrave, P. A. Vision Research, 30, 1129-1137 (1990)).
smiles,measurement,setting,value
"CC(=O)OC/C=C(C)/C=C/C=C(C)\C=C\C1=C(C)CCCC1(C)C [9-cis-R-Ac, 9-cis-retinyl acetate]","functional a- and b-wave amplitudes, single-flash ERG",C57BL/6 female mice [1],slightly increased
same,tolerability of long-term treatment,[2],well tolerated
same,"a- and b-wave amplitudes, scotopic and photopic single flash ERG","C57BL/6 female mice [3]; 10 months of age, monthly gavage ~80 mg/kg for 6 months (N1 vs C1), high flash strengths, except a-waves under photopic conditions",slight improvement; also recorded: significantly improved; also recorded: increased significantly
same,sensitivities and maximal a-wave amplitudes estimated from a-wave maximal responses,"C57BL/6 female mice [3]; 14 months of age, dark-adapted mice, treated vs control",not to be significantly different
same,"a- and b-wave amplitudes, scotopic and photopic single flash ERG","C57BL/6 female mice [3]; 14 months of age, monthly gavage ~80 mg/kg (9-cis-R-Ac: N2 and N3), vs control C2",No significant differences; also recorded: largely disappeared
same,regeneration ratio of rhodopsin (absorbance 498 nm/280 nm),"rhodopsin/opsin [4]; single dose ~80 mg/kg gavage, 10-month-old mice, bleached, 16 hr dark-adapted, treated vs control, 80 mg/kg",significantly higher; also recorded: improved; also recorded: slightly higher
same,9-cis-retinal extracted from purified proteins (bound chromophore),"rhodopsin/opsin [4]; single dose, samples from treated mice",a significant amount of 9-cis-retinal was detected
same,total amount of purified protein,"rhodopsin/opsin [4]; single dose, treated vs control",did not significantly differ
same,amounts of purified protein recovered,"rhodopsin/opsin [5]; 10-month-old treated mice, N1 versus C1",only slightly attenuated
same,amounts of purified protein recovered,"rhodopsin/opsin [5]; 14 months of age, N2 and N3 vs C2",significantly lower
same,regeneration ratios (rhodopsin/opsin) and total amounts of purified rhodopsin,"rhodopsin/opsin [5]; long-term treatment, 10 and 14 months of age, control vs treated",no significant differences
